According to US12479820B2, “Pyridin-3-yl derivatives” (Idorsia Pharmaceuticals Ltd, priority 2019, dated 2025):

Target: T1, human LPA1 receptor (Homo sapiens, UniProt Q92633)
T1 construct: TEV protease site; Gal4-VP16 transcription factor; host or cells: Tango EDG2-bla U2OS cells
Assay: Beta-arrestin recruitment assay to determine IC50 values for human LPAR1
Assay type: cell-based
Conditions: Tango EDG2-bla U2OS cells, antagonist assay, LPA 18:1 500 nM final
Text: Beta-Arrestin Recruitment Assay to Determine IC50 Values for Human LPAR1
The Tango™ EDG2-bla U2OS cells are obtained from Invitrogen. These cells contain the human LPA1 receptor cDNA linked to a TEV protease site and a Gal4-VP16 transcription factor integrated into the Tango™ GPCR-bla U2OS parental cell line. This parental cell line stably expresses a beta-arrestin/TEV protease fusion protein and the beta-lactamase (bla) reporter gene under the control of a UAS response element. Upon LPA (agonist) binding, LPA1 receptor gets activated, leading to arrestin-protease recruitment and proteolytic release of the transcription factor: The transcription factor then regulates transcription of a beta-lactamase reporter construct, which is measured upon addition of the live-cell substrate.
10′000 Tango™ EDG2-bla U2OS cells are seeded in a 384-well black with clear bottom plate in 30 μl Freestyle 293 Expression Medium (Invitrogen) and incubated for 20 h at 37° C., 5% CO2. For antagonist assays, 5 μl of test compound (dilution series in DMSO/Freestyle 293 Expression medium/0.1% fatty acid free BSA (Sigma)) or buffer control are added per well and incubated for 30 min at 37° C., 5% CO2. 5 μl of LPA 18:1 (500 nM final) (solution in Freestyle 293 Expression medium/0.1% fatty acid free BSA (Sigma)) are added per well and the plate incubated for 16 h at 37° C., 5% CO2. Cells are then loaded with LiveBLAzer-FRET™ B/G Substrate (Invitrogen) for 2 h in the dark and the fluorescence emission at 460 nm and 530 nm is measured using the SynergyMx reader (BioTek). Following the background subtraction from both channels, the 460/530 nm emission ratio for each well is calculated, then plotted and fitted to a 4-parameter logistic function to obtain IC50 values. IC50 is the concentration of antagonist inhibiting 50% of the maximal response.

T1 sequence (Q92633 whole entry, the tested form may be a part): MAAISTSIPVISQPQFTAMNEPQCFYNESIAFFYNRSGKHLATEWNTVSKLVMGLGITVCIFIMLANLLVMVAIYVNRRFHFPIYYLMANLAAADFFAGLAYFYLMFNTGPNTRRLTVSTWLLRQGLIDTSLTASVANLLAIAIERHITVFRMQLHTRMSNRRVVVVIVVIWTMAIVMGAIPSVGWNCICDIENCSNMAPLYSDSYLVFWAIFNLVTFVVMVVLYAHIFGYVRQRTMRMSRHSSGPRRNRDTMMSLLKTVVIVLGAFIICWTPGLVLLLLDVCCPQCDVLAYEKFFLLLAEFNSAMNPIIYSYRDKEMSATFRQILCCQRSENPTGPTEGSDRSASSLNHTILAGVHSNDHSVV

| IC50 | Compound |
| --- | --- |
| 56 nM | COc1cc(Br)ncc1NC(=O)C1(c2ccccc2C(C)C)CN(CCC(C)(C)C(=O)O)C1 [Example 18-23, 4-(3-((6-bromo-4-methoxypyridin-3-yl)carbamoyl)-3-(2-isopropylphenyl)azetidin-1-yl)-2,2-dimethylbutanoic acid] |
| 7 nM | COc1cc(Cl)ncc1NC(=O)C1(c2ccccc2C(C)C)CN(c2ccnc(C)n2)C1 [Example 24-12, N-(6-chloro-4-methoxypyridin-3-yl)-3-(2-isopropylphenyl)-1-(2-methylpyrimidin-4-yl)azetidine-3-carboxamide] |
| 107 nM | COc1cc(Cl)ncc1NC(=O)C1(c2ccccc2C(C)C)CN(C(=O)Cn2ccnn2)C1 [Example 19-11, 1-(2-(1H-1,2,3-triazol-1-yl)acetyl)-N-(6-chloro-4-methoxypyridin-3-yl)-3-(2-isopropylphenyl)azetidine-3-carboxamide] |
| 17 nM | COc1cc(Cl)ncc1NC(=O)C1(c2ccccc2C(C)C)CN(CCNS(N)(=O)=O)C1 [Example 18-28, N-(6-chloro-4-methoxypyridin-3-yl)-3-(2-isopropylphenyl)-1-(2-(sulfamoylamino)ethyl)azetidine-3-carboxamide] |
| 37 nM | COc1cc(Cl)ncc1NC(=O)C1(c2ccccc2C(C)C)CN(C(=O)CNS(C)(=O)=O)C1 [Example 19-15, N-(6-chloro-4-methoxypyridin-3-yl)-3-(2-isopropylphenyl)-1-((methylsulfonyl)glycyl)azetidine-3-carboxamide] |
| 61 nM | COc1cc(Cl)ncc1NC(=O)C1(c2ccccc2C(C)C)CN(Cc2c[nH]nn2)C1 [Example 18-15, 1-((1H-1,2,3-triazol-4-yl)methyl)-N-(6-chloro-4-methoxypyridin-3-yl)-3-(2-isopropylphenyl)azetidine-3-carboxamide] |
| 111 nM | COC(=O)C(C)(C)CCN1CC(C(=O)Nc2cnc(Cl)cc2OC)(c2ccccc2C(C)C)C1 [Example 18-16, methyl 4-(3-((6-chloro-4-methoxypyridin-3-yl)carbamoyl)-3-(2-isopropylphenyl)azetidin-1-yl)-2,2-dimethylbutanoate] |
| 12 nM | COc1cc(Cl)ncc1NC(=O)C1(c2cc(F)ccc2C(C)C)CNC1 [Example 14, N-(6-chloro-4-methoxypyridin-3-yl)-3-(5-fluoro-2-isopropylphenyl)azetidine-3-carboxamide] |
| 18 nM | CCOC(=O)CNC(=O)N1CC(C(=O)Nc2cnc(Cl)cc2OC)(c2ccccc2C(C)C)C1 [Example 22-11, ethyl (3-((6-chloro-4-methoxypyridin-3-yl)carbamoyl)-3-(2-isopropylphenyl)azetidine-1-carbonyl)glycinate] |
| 22 nM | COC(=O)c1cnc(N2CC(C(=O)Nc3cnc(Cl)cc3OC)(c3ccccc3C(C)C)C2)nc1 [Example 24-22, methyl 2-(3-((6-chloro-4-methoxypyridin-3-yl)carbamoyl)-3-(2-isopropylphenyl)azetidin-1-yl)pyrimidine-5-carboxylate] |
| 12 nM | COc1cc(Cl)ncc1NC(=O)C1(c2ncccc2C(C)C)CN(S(N)(=O)=O)C1 [Example 21-16, N-(6-chloro-4-methoxypyridin-3-yl)-3-(3-isopropylpyridin-2-yl)-1-sulfamoylazetidine-3-carboxamide] |
| 129 nM | COc1cc(Cl)ncc1NC(=O)C1(c2ccccc2C(C)C)CN(Cc2cc[nH]n2)C1 [Example 18-13, 1-((1H-pyrazol-3-yl)methyl)-N-(6-chloro-4-methoxypyridin-3-yl)-3-(2-isopropylphenyl)azetidine-3-carboxamide] |
| 8 nM | COc1cc(Cl)ncc1NC(=O)C1(c2ccccc2C(C)C)CN(c2ncc(F)cn2)C1 [Example 24-9, N-(6-chloro-4-methoxypyridin-3-yl)-1-(5-fluoropyrimidin-2-yl)-3-(2-isopropylphenyl)azetidine-3-carboxamide] |
| 252 nM | COCCOc1cc(Cl)ncc1NC(=O)C1(c2ccccc2C(C)C)CNC1 [Example 8, N-(6-chloro-4-(2-methoxyethoxy)pyridin-3-yl)-3-(2-isopropylphenyl)azetidine-3-carboxamide] |
| 16 nM | COc1cc(Cl)ncc1NC(=O)C1(c2ccccc2C(C)C)CCN(S(N)(=O)=O)CC1 [Example 21-8, N-(6-chloro-4-methoxypyridin-3-yl)-4-(2-isopropylphenyl)-1-sulfamoylpiperidine-4-carboxamide] |
| 19 nM | COc1cc(Cl)ncc1NC(=O)C1(c2ccccc2C(C)C)CN(C(C)=O)C1 [Example 19-2, 1-acetyl-N-(6-chloro-4-methoxypyridin-3-yl)-3-(2-isopropylphenyl)azetidine-3-carboxamide] |

| IC50 | Compound |
| --- | --- |
| 3 nM | CCOc1cc(Cl)ncc1NC(=O)C1(c2ccccc2C(C)C)CNC1 [Example 5, N-(6-chloro-4-ethoxypyridin-3-yl)-3-(2-isopropylphenyl)azetidine-3-carboxamide] |
| 17 nM | COc1cc(F)ncc1NC(=O)C1(c2ccccc2C(C)C)CN(S(N)(=O)=O)C1 [Example 21-1, N-(6-fluoro-4-methoxypyridin-3-yl)-3-(2-isopropylphenyl)-1-sulfamoylazetidine-3-carboxamide] |
| 9 nM | COc1cc(Cl)ncc1NC(=O)C1(c2ccccc2C(C)C)CN(C(C)C)C1 [Example 18-1, N-(6-chloro-4-methoxypyridin-3-yl)-1-isopropyl-3-(2-isopropylphenyl)azetidine-3-carboxamide] |
| 74 nM | COc1ccncc1NC(=O)C1(c2ccccc2C(C)C)CNC1 [Example 2, 3-(2-isopropylphenyl)-N-(4-methoxypyridin-3-yl)azetidine-3-carboxamide] |
| 5 nM | COc1cc(Cl)ncc1NC(=O)C1(c2ccccc2C(C)C)CN(c2ncncc2C)C1 [Example 24-13, N-(6-chloro-4-methoxypyridin-3-yl)-3-(2-isopropylphenyl)-1-(5-methylpyrimidin-4-yl)azetidine-3-carboxamide] |
| 79 nM | COc1cc(Cl)ncc1NC(=O)C1(c2ccccc2C(C)C)CCN(CCC(C)(C)C(=O)O)CC1 [Example 18-22, 4-(4-((6-chloro-4-methoxypyridin-3-yl)carbamoyl)-4-(2-isopropylphenyl)piperidin-1-yl)-2,2-dimethylbutanoic acid] |
| 4 nM | COc1cc(Cl)ncc1NC(=O)C1(c2c(F)cccc2C(C)C)CN(S(N)(=O)=O)C1 [Example 21-14, N-(6-chloro-4-methoxypyridin-3-yl)-3-(2-fluoro-6-isopropylphenyl)-1-sulfamoylazetidine-3-carboxamide] |
| 76 nM | COc1cc(Cl)ncc1NC(=O)C1(c2ccccc2C(C)C)CN(CC2(F)CC2)C1 [Example 18-10, N-(6-chloro-4-methoxypyridin-3-yl)-1-((1-fluorocyclopropyl)methyl)-3-(2-isopropylphenyl)azetidine-3-carboxamide] |
| 2 nM | COc1cc(Cl)ncc1NC(=O)C1(c2ccccc2C(C)C)CN(c2ccncc2C)C1 [Example 24-1, N-(6-chloro-4-methoxypyridin-3-yl)-3-(2-isopropylphenyl)-1-(3-methylpyridin-4-yl)azetidine-3-carboxamide] |
| 6 nM | CCNC(=O)N1CC(C(=O)Nc2cnc(Cl)cc2OC)(c2ccccc2C(C)C)C1 [Example 22-3, N3-(6-chloro-4-methoxypyridin-3-yl)-N1-ethyl-3-(2-isopropylphenyl)azetidine-1,3-dicarboxamide] |
| 9 nM | COc1cc(Cl)ncc1NC(=O)C1(c2ccccc2C(C)C)CN(C=O)C1 [Example 19-3, N-(6-chloro-4-methoxypyridin-3-yl)-1-formyl-3-(2-isopropylphenyl)azetidine-3-carboxamide] |
| 44 nM | COCCOc1cc(Cl)ncc1NC(=O)C1(c2ccccc2C(C)C)CN(S(N)(=O)=O)C1 [Example 21-6, N-(6-chloro-4-(2-methoxyethoxy)pyridin-3-yl)-3-(2-isopropylphenyl)-1-sulfamoylazetidine-3-carboxamide] |
| 4 nM | COC[C@H](C)Oc1cc(Cl)ncc1NC(=O)C1(c2ccccc2C(C)C)CNC1 [Example 9, (S)-N-(6-chloro-4-((1-methoxypropan-2-yl)oxy)pyridin-3-yl)-3-(2-isopropylphenyl)azetidine-3-carboxamide] |
| 9 nM | COC(=O)c1cnc(N2CC(C(=O)Nc3cnc(Cl)cc3OC)(c3ccccc3C(C)C)C2)cn1 [Example 24-19, methyl 5-(3-((6-chloro-4-methoxypyridin-3-yl)carbamoyl)-3-(2-isopropylphenyl)azetidin-1-yl)pyrazine-2-carboxylate] |
| 270 nM | COc1cc(Cl)ncc1NC(=O)C1(c2ccccc2C(C)C)CN(c2nnn[nH]2)C1 [Example 25, N-(6-chloro-4-methoxypyridin-3-yl)-3-(2-isopropylphenyl)-1-(1H-tetrazol-5-yl)azetidine-3-carboxamide] |
